Source: patent US20220372171A1, “ANTIBODY DIRECTED AGAINST TENOFOVIR AND DERIVATIVES THEREOF” (priority 2019, published 2022)

Columns and labels:
[1] = Plasma TFV concentration by LC-MS/MS, Partners PrEP Study cohort; assay type: in vivo, human; conditions: Partners PrEP cohort on TDF or TDF/FTC; IQR=1.6-103.0 ng/mL
Experimental: (§1) It was hypothesized that TFV concentrations in urine, measured via an immunoassay, would correlate to those in plasma, the gold standard for short-term PrEP adherence in clinical trials, and associated with protection from HIV. To test this hypothesis, TFV levels were measured in stored urine samples collected from a randomly sampled cohort of HIV-negative men and women from the active PrEP arms in the Partners PrEP Study using enzyme-linked immunosorbent assay (ELISA) (lower limit of quantification [LLOQ] of 1000 ng/mL). Date-matched plasma TFV concentrations were measured using liquid chromatography-tandem mass spectrometry (LC-MS/MS) with an LLOQ of 0.31 ng/mL. Using the same cohort and a purposive sample of all HIV seroconverters on PrEP, a case-cohort analysis was conducted to assess the association between recent urine TFV level ≥1500 ng/mL, a threshold previously shown to accurately predict recent PrEP dosing, and protection from HIV. Weighted Cox proportional hazard models were used and adjusted for age, sex, and sexual behavior.

[2] = tested on: HIV; conditions: daily doses; subjects at high risk through sexual transmission and drug use; cited from earlier work
[3] = tested on: HIV; experiment: Nested case-control analysis: TFV level and protection from HIV acquisition (Partners PrEP Study); assay type: in vivo
Experimental: as §1
To assess the association between urine TFV concentrations ≥1,500 ng/mL and protection from HIV acquisition, a nested case-control analysis was conducted. Case samples collected on the date of the first evidence of HIV infection (i.e., first positive test for HIV-1 RNA) were matched with control samples collected at the same study visit month. […]

[4] = tested on: HIV; experiment: Urine TFV levels by immunoassay and HIV seroconversion (iPrEx-OLE); assay type: in vivo
Experimental: PrEP was provided to 1,085 men who have sex with men (MSM) and 140 transwomen (Grant et al., Lancet Infect Dis, 14: 820-829 (2014)). Urine was collected every 12 weeks and dried blood spots (DBS) were prepared 4 and 8 weeks after PrEP initiation, and then every 12 weeks. DBS assays for TFV-diphosphate (TFV-DP) and FTC-triphosphate (FTC-TP) were analyzed at all visits for participants who seroconverted in the iPrEx open-label extension (iPrEx-OLE) study and in a random subset of those who remained HIV-negative (Grant et al., supra). Hair samples for TFV and FTC were collected every 12 weeks for all who provided opt-in consent and analyzed among seroconverters and a random subset of those who remained HIV-negative (Gandhi et al., Lancet HIV, 3: e521-e528 (2016)). Participants who qualified for the correlation analysis required sample availability from all three biomatrices (urine, DBS, hair) at one or more visits over the duration of iPrEx-OLE (median 72 weeks). Additional urine samples from seroconverters (n=10) were included in the specific analysis looking at the association between urine TFV levels and seroconversion. All individuals in the study provided informed consent, including for sample storage and further testing, and the institutional review board from each study site approved the study.
The upper limit of quantification for the immunoassay was 50,000 ng/mL. Using previously described and validated LC-MS/MS-based methods, TFV-DP and FTC-TP concentration were measured in DBS (Zheng et al., J Pharm Biomed Anal, 122: 16-20 (2016)), and FTC and TFV concentrations were measured in hair (Liu et al., PLoS One, 9: e83736 (2014)).
For the seroconversion analysis, urine TFV concentrations via the immunoassay were compared using Kruskal-Wallis' test among individuals at the seroconversion visit; prior to the seroconversion visit; and those who remained HIV-negative. Receiver operating curves (ROC) were analyzed to identify two urine TFV cut-points and compared with the outcome of future HIV seroconversion. […] The sensitivity and specificity of the urine assay at an undetectable urine TFV level (<1,000 ng/mL) was compared with two levels of inadequate adherence defined by TFV-DP concentrations in DBS: the limit of quantification (<3.5 fmol/punch) and very low adherence (<350 fmol/punch, estimated average weekly adherence of <2 tablets/week) (Grant et al., Lancet Infect Dis, 14: 820-829 (2014)); and Anderson et al., Antimicrob Agents Chemother, 62: e01710-e01717 (2018)). The lower limit of detection for the urine assay (1,000 ng/mL) was selected as the optimal single cut-off based on analysis of ROC curves and prior data examining LC-MS/MS-based methods to quantify TFV levels in urine (Lalley-Chareczko et al., J Acquir Immune Defic Syndr, 79: 173-178 (2018)).

[5] = Urine TFV concentration by ELISA, Partners PrEP Study cohort; assay type: in vivo, human; conditions: Partners PrEP cohort on TDF or TDF/FTC; IQR=500-90,000 ng/mL
Experimental: as §1

For C[C@H](Cn1cnc2c(N)ncnc21)OCP(=O)(O)O [TFV, tenofovir], the “median TFV concentration in plasma via LC-MS/MS” value [1] is listed as 65.4 ng/mL, the “reduced incidence of HIV” value [2] is listed as 48.9% and the “reduction in HIV risk associated with plasma TFV >40 ng/mL” value ([3]; plasma TFV >40 ng/mL by LC-MS/MS, 95% CI=54-96%) is listed as 87%. The “% HIV risk reduction (95% CI)” value ([3]; urine TFV ≥1500 ng/mL by immunoassay, unadjusted, TDF/FTC or TDF-only PrEP) was 73% (36 to 89%), the “urinary TFV level at seroconversion” value ([4]; at seroconversion (n=9), P<0.001, undetectable = <1,000 ng/mL) was “undetectable” and the “association of decreasing strata of urine TFV levels with HIV seroconversion” value ([4]; samples prior to seroconversion visit, P=0.03) was “associated with future HIV seroconversion”. For the same compound, the “median urinary TFV level” value ([4]; those who eventually seroconverted (n=11), interquartile range 1,000-12,500) was 5,500 ng/mL, the “median urinary TFV level” value ([4]; those who remained HIV negative (n=105), interquartile range 1,000-45,000) was 15,000 ng/mL and the “median TFV concentration in urine via ELISA” value [5] was 37,500 ng/mL.
